Assay results as given in ChEMBL document CHEMBL4507276 (2021).

How the values were obtained:
[1] = target: T1, Tyrosine-protein kinase ZAP-70 (Homo sapiens) (UniProt P43403); conditions: Compound concentration 1000.0 nM
T1 sequence (whole entry): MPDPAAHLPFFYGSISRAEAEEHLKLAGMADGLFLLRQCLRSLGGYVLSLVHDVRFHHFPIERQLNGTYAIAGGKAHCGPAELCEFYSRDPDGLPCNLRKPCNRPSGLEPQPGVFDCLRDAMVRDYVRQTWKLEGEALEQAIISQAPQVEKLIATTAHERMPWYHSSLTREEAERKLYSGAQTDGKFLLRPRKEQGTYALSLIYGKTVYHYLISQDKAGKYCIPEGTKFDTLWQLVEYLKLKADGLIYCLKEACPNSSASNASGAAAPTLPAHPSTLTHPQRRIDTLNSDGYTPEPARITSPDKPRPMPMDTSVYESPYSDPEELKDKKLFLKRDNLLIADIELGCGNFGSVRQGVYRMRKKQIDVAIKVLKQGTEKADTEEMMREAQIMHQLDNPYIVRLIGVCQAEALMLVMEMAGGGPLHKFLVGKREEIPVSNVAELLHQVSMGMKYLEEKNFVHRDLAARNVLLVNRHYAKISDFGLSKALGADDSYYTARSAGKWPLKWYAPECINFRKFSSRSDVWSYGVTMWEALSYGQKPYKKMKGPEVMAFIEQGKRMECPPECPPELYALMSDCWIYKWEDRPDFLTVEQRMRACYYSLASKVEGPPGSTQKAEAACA

[2] = target: SRSF protein kinase 1 (Homo sapiens) (UniProt Q96SB4); conditions: Compound concentration 1000.0 nM
[3] = target: Transient receptor potential cation channel subfamily M member 6 (Homo sapiens) (UniProt Q9BX84); conditions: Compound concentration 1000.0 nM
[4] = target: Serine/threonine-protein kinase WNK2 (Homo sapiens) (UniProt Q9Y3S1); conditions: Compound concentration 1000.0 nM
[5] = target: Mitogen-activated protein kinase kinase kinase 1 (Homo sapiens) (UniProt Q13233); conditions: Compound concentration 1000.0 nM
[6] = target: Serine/threonine-protein kinase PLK3 (Homo sapiens) (UniProt Q9H4B4); conditions: Compound concentration 1000.0 nM
[7] = target: Serine/threonine-protein kinase PLK4 (Homo sapiens) (UniProt O00444); conditions: Compound concentration 1000.0 nM
[8] = target: T2, Discoidin domain-containing receptor 2 (Homo sapiens) (UniProt Q16832); conditions: Compound concentration 1000.0 nM
T2 sequence (whole entry): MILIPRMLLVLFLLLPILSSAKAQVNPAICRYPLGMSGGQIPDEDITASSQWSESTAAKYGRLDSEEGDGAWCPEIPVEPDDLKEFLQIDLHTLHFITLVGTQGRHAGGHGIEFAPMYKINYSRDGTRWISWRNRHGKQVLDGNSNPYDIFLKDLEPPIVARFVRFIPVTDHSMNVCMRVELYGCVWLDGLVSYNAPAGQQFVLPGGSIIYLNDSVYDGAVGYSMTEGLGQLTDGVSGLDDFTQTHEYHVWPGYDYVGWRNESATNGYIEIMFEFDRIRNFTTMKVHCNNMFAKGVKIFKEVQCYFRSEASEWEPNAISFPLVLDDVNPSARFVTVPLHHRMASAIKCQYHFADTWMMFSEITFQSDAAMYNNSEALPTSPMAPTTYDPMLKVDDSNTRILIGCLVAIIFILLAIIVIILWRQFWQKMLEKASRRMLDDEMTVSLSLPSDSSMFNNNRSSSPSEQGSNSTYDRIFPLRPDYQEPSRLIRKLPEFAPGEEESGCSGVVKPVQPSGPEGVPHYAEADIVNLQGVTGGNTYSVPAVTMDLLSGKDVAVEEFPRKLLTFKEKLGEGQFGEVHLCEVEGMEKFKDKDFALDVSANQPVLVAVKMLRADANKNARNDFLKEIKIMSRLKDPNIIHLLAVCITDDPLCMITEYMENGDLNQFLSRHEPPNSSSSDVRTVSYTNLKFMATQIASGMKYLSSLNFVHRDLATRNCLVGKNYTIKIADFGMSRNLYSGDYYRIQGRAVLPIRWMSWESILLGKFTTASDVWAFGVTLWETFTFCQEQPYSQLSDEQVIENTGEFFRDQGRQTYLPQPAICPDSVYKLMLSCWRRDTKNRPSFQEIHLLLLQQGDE

[9] = target: Sigma intracellular receptor 2 (Homo sapiens) (UniProt Q5BJF2); conditions: Compound concentration 10.0 uM
[10] = target: Cyclin-dependent kinase 11A (Homo sapiens) (UniProt Q9UQ88); conditions: Compound concentration 1000.0 nM
[11] = target: D(2) dopamine receptor (Homo sapiens) (UniProt P14416); conditions: Compound concentration 10.0 uM
[12] = target: Serine/threonine-protein kinase pim-3 (Homo sapiens) (UniProt Q86V86); conditions: Compound concentration 1000.0 nM
[13] = target: Tyrosine-protein kinase BTK (Homo sapiens) (UniProt Q06187); conditions: Compound concentration 1000.0 nM
[14] = target: cAMP-dependent protein kinase catalytic subunit alpha (Homo sapiens) (UniProt P17612); conditions: Compound concentration 1000.0 nM
[15] = test system: Hepatocyte growth factor receptor (Homo sapiens), P08581 [M1250T]; conditions: Compound concentration 1000.0 nM
[16] = target: Casein kinase I isoform alpha-like (Homo sapiens) (UniProt Q8N752); conditions: Compound concentration 1000.0 nM
[17] = target: Tyrosine-protein kinase HCK (Homo sapiens) (UniProt P08631); conditions: Compound concentration 1000.0 nM
[18] = target: Serine/threonine-protein kinase 36 (Homo sapiens) (UniProt Q9NRP7); conditions: Compound concentration 1000.0 nM

Chain of SRSF protein kinase 1 (Homo sapiens) (Q96SB4 whole entry): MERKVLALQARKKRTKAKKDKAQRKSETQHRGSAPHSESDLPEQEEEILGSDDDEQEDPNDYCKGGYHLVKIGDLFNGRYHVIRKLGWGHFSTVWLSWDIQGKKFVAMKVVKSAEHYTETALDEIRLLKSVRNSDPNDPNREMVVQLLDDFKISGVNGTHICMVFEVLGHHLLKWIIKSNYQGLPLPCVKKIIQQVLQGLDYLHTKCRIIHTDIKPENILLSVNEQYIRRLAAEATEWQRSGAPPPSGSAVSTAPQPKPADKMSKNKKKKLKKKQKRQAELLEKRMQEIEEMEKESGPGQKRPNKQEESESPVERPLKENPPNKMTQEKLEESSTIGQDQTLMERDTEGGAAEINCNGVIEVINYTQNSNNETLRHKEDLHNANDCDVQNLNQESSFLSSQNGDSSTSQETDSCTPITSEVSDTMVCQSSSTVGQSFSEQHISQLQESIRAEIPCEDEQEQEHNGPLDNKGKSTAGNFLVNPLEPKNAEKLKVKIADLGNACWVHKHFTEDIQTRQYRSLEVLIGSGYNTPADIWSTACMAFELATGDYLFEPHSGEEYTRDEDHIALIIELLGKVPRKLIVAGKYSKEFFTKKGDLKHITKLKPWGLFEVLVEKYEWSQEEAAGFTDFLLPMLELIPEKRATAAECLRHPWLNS
Chain of Transient receptor potential cation channel subfamily M member 6 (Homo sapiens) (Q9BX84 whole entry): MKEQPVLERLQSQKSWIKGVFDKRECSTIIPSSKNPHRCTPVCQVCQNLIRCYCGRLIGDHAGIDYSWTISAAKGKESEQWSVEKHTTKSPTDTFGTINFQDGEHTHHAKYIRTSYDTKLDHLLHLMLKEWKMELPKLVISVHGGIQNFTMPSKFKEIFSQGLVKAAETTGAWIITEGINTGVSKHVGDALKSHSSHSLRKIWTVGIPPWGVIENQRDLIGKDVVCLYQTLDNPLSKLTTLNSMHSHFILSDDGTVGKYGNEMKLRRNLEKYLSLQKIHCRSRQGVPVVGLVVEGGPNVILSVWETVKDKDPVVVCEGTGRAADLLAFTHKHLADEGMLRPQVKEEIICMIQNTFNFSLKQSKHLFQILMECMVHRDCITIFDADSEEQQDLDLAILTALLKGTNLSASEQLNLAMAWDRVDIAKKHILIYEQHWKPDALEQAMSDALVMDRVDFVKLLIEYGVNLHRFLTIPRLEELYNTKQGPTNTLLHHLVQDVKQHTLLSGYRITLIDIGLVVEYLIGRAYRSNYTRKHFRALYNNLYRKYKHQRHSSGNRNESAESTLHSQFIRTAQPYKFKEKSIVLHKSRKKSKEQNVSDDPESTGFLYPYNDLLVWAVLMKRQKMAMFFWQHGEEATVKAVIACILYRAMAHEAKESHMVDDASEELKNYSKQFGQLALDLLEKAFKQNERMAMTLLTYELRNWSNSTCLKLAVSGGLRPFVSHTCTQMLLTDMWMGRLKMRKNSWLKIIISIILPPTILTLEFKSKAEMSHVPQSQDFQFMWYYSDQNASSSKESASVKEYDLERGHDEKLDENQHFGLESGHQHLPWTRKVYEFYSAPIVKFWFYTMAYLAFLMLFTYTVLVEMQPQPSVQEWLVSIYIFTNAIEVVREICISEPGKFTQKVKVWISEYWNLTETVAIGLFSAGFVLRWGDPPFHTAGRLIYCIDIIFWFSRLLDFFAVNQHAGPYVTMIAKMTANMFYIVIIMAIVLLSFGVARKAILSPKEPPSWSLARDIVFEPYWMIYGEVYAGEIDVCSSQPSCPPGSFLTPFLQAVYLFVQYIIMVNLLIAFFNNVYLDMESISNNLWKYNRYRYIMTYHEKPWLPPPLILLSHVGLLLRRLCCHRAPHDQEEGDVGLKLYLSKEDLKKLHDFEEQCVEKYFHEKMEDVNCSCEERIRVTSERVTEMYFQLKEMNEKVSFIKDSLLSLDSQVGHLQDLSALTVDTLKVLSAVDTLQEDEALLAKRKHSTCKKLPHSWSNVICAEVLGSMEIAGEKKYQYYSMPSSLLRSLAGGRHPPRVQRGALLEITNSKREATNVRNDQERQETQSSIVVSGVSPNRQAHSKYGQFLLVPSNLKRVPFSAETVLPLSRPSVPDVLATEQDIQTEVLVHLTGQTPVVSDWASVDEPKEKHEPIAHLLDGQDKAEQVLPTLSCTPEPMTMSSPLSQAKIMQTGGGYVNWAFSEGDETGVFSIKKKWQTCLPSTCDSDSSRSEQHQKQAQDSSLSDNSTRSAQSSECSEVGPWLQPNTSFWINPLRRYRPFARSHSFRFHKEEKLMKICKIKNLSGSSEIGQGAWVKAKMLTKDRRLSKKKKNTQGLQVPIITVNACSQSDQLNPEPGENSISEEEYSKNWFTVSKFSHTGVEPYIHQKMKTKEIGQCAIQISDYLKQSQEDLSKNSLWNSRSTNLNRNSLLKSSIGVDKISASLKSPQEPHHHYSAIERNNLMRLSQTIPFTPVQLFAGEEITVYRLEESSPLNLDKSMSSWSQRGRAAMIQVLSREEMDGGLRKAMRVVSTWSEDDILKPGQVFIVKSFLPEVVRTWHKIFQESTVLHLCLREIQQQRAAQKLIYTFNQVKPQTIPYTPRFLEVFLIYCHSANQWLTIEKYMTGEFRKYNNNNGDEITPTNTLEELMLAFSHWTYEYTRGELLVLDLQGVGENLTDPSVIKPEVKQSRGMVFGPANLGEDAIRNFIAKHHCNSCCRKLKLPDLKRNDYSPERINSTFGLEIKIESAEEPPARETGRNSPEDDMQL
Chain of Serine/threonine-protein kinase PLK3 (Homo sapiens) (Q9H4B4 whole entry, looked up): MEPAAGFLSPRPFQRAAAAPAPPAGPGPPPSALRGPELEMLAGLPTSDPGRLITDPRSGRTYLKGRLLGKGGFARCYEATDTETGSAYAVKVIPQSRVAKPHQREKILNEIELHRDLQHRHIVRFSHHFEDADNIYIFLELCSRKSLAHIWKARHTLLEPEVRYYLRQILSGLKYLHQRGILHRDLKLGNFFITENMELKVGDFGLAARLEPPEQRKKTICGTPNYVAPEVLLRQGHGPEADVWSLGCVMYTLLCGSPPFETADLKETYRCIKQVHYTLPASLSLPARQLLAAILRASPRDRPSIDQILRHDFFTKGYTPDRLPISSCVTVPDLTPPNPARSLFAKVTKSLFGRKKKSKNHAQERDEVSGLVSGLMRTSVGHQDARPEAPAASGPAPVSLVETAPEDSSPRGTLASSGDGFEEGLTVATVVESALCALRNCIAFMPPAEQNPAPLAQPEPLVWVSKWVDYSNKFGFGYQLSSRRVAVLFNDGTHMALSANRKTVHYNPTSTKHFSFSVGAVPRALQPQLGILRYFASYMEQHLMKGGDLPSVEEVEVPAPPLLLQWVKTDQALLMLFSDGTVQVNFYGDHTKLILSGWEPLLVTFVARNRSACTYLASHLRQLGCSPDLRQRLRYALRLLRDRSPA
Chain of Serine/threonine-protein kinase PLK4 (Homo sapiens) (O00444 whole entry, the tested form may be a part): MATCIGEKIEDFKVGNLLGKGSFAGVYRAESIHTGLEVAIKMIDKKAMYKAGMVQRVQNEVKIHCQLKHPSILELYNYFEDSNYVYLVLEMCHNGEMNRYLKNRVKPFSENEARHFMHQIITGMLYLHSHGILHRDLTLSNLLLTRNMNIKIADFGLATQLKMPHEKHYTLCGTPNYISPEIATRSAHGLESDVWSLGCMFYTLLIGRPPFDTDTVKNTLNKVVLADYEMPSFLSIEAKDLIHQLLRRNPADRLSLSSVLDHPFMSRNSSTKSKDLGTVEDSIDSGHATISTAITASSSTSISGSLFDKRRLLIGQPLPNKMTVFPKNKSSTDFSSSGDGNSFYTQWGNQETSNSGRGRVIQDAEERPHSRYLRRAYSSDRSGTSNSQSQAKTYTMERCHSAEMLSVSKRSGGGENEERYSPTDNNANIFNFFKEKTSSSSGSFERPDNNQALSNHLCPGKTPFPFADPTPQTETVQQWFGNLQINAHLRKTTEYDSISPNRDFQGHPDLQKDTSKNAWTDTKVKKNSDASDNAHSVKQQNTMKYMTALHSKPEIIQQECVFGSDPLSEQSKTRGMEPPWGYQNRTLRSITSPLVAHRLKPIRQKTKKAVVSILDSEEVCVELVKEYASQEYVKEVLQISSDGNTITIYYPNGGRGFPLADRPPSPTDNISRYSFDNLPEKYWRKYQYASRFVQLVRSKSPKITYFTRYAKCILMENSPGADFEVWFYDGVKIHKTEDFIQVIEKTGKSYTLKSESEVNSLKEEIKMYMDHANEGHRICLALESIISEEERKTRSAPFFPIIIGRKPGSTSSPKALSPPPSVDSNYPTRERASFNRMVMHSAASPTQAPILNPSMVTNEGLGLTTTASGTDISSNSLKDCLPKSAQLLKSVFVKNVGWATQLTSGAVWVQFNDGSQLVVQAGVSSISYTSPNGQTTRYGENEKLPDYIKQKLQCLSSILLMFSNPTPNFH
Chain of Cyclin-dependent kinase 11A (Homo sapiens) (Q9UQ88 whole entry): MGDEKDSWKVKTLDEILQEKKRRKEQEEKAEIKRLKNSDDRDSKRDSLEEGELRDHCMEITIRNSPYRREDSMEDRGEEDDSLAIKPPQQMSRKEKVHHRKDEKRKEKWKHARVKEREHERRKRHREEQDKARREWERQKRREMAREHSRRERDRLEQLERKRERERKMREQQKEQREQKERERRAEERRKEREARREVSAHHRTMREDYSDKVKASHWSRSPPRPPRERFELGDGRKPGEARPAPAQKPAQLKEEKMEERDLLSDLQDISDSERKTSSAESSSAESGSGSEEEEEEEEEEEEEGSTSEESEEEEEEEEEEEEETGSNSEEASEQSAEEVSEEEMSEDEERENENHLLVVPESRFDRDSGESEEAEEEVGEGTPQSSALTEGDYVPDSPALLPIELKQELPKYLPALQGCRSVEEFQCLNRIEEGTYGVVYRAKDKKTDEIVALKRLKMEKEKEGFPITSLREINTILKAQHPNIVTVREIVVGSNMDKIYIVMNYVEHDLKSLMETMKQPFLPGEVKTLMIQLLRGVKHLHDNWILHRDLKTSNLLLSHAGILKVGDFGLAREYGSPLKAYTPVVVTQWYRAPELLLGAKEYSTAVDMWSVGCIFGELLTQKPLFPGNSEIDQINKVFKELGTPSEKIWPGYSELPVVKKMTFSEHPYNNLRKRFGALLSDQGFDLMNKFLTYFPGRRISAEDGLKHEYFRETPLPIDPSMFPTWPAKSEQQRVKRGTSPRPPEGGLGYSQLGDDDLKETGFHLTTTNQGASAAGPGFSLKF

CN(C)C(=O)Cn1cc(-c2nc(C3(c4ccc(-c5cnc(N)nc5)cc4)CC3)no2)cn1 [BI 0153]
inactive: residual activity [1] 94% | residual activity [2] 93% | residual activity [3] 86% | residual activity [4] 67% | residual activity [5] 77% | residual activity [6] 89% | residual activity [7] 100% | residual activity [8] 100% | inhibition [9] 25% | residual activity [10] 89% | inhibition [11] 16.1% | residual activity [12] 100% | residual activity [13] 82% | residual activity [14] 91% | residual activity [15] 100% | residual activity [16] 98% | residual activity [17] 100% | residual activity [18] 75%

CN(C)C(=O)Cn1cc(-c2nc([C@@](C)(c3ccc(-c4cnc(N)nc4)cc3)C3CC3)no2)cn1 [BI 665915]
inactive: residual activity [1] 100% | residual activity [2] 100% | residual activity [3] 78% | residual activity [4] 100% | residual activity [5] 90% | residual activity [6] 89% | residual activity [7] 74% | residual activity [8] 89% | inhibition [9] 10.1% | residual activity [10] 100% | inhibition [11] 13.6% | residual activity [12] 96% | residual activity [13] 73% | residual activity [14] 87% | residual activity [15] 93% | residual activity [16] 100% | residual activity [17] 79% | residual activity [18] 79%
